From ChEMBL document CHEMBL1155471, “Discovery of potent, balanced and orally active dual NK1/NK3 receptor ligands” (Bioorg Med Chem Lett, 2010)

Columns and labels:
Substance-P receptor = Substance-P receptor (Homo sapiens, UniProt P25103); assay: Displacement of [3H]substance P from human NK1 receptor expressed in CHO cells; assay type: cell-based
Neuromedin-K receptor = molecular target: T1, Neuromedin-K receptor (Homo sapiens, UniProt P29371); assay: Displacement of [3H]SR142801 from human NK3 receptor expressed in HEK293-EBNA cells; assay type: cell-based
T1 sequence (P29371 whole entry): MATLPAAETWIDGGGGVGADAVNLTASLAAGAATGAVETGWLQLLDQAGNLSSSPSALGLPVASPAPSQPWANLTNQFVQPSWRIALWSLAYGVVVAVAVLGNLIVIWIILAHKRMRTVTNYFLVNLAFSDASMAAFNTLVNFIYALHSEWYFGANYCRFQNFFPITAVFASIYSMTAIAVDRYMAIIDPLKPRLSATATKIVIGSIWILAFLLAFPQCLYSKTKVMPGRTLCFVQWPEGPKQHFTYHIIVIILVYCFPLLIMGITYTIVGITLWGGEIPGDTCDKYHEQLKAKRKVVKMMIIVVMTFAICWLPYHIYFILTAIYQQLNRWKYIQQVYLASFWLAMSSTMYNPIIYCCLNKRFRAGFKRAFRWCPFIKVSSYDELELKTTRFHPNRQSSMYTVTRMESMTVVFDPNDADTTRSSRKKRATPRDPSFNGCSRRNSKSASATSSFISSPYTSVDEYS

Meriones unguiculatus [1] = assay: Inhibition of GR-73632-induced foot tapping behavior in po dosed Mongolian gerbil administered 2 hrs before GR-73632 challenge; assay type: functional; conditions: read-out: ID50 (the source's name)
Meriones unguiculatus [2] = assay: Inhibition of GR-73632-induced foot tapping behavior in Mongolian gerbil at 10 mg/kg, po administered 2 hrs before GR-73632 challenge; assay type: functional

Chain of Substance-P receptor (P25103 whole entry): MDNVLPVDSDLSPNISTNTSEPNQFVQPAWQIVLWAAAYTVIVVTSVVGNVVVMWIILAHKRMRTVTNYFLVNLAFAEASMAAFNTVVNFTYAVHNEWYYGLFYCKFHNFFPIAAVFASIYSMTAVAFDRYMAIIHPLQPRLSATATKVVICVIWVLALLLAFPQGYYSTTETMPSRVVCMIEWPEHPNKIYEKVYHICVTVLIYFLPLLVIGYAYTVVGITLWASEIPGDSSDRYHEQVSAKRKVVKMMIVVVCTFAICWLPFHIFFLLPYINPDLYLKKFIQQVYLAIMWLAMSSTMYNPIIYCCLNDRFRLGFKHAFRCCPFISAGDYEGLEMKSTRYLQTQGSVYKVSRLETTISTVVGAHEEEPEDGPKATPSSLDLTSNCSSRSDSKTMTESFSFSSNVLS

Row | SMILES | Ki (Substance-P receptor) [nM] | Ki (Neuromedin-K receptor) [nM] | ED50 (Meriones unguiculatus [1]) [mg/kg] | inhibition in vivo at 10 mg/kg (Meriones unguiculatus [2]) [%]
1 | CN(C(=O)C(C)(C)c1cc(C(F)(F)F)cc(C(F)(F)F)c1)c1cnc(N2CCCC[C@H]2CO)cc1-c1ccccc1Cl | 11.1 | 7.72 | – | –
2 | CN(C(=O)C(C)(C)c1cc(C(F)(F)F)cc(C(F)(F)F)c1)c1cnc(N2C[C@H](O)C[C@H]2CO)cc1-c1ccccc1Cl | – | 1.12 | 1.1 | –
3 | CN(C(=O)C(C)(C)c1cc(C(F)(F)F)cc(C(F)(F)F)c1)c1cnc(N2CCCC(O)C2)cc1-c1ccccc1Cl (configuration not stated) | 1.72 | 15.1 | – | –
4 | CN(C(=O)C(C)(C)c1cc(C(F)(F)F)cc(C(F)(F)F)c1)c1cnc(N2CCC[C@@H]2CO)cc1-c1ccccc1Cl | 1.58 | 7.27 | – | –
5 | CN(C(=O)C(C)(C)c1cc(C(F)(F)F)cc(C(F)(F)F)c1)c1cnc(N(CCO)CCO)cc1-c1ccccc1Cl | 1.15 | 0.91 | – | –
6 | CN(C(=O)C(C)(C)c1cc(C(F)(F)F)cc(C(F)(F)F)c1)c1cnc(N2C[C@@H](O)C[C@H]2CO)cc1-c1ccccc1Cl | – | – | 1.3 | –
7 | CCCN(CCO)c1cc(-c2ccccc2Cl)c(N(C)C(=O)C(C)(C)c2cc(C(F)(F)F)cc(C(F)(F)F)c2)cn1 | 2.24 | 5.4 | – | 100
8 | CN(C(=O)C(C)(C)c1cc(C(F)(F)F)cc(C(F)(F)F)c1)c1cnc(N2CC[C@H](O)C2)cc1-c1ccccc1Cl | 0.86 | 8.38 | – | –
9 | CN(C(=O)C(C)(C)c1cc(C(F)(F)F)cc(C(F)(F)F)c1)c1cnc(NCCO)cc1-c1ccccc1Cl | 1.12 | – | 1 | –
10 | CN(C(=O)C(C)(C)c1cc(C(F)(F)F)cc(C(F)(F)F)c1)c1cnc(N2CC[C@@H](O)C2)cc1-c1ccccc1Cl | 2.62 | 6.87 | – | –
11 | CN(C(=O)C(C)(C)c1cc(C(F)(F)F)cc(C(F)(F)F)c1)c1cnc(N2CCC[C@H]2CO)cc1-c1ccccc1Cl | 1 | 0.74 | – | –
12 | CCN(CCO)c1cc(-c2ccccc2Cl)c(N(C)C(=O)C(C)(C)c2cc(C(F)(F)F)cc(C(F)(F)F)c2)cn1 | 3.37 | 12.2 | – | 100
13 | COC[C@@H]1C[C@@H](OC)CN1c1cc(-c2ccccc2Cl)c(N(C)C(=O)C(C)(C)c2cc(C(F)(F)F)cc(C(F)(F)F)c2)cn1 | 0.91 | 29.8 | – | –
14 | CN(C(=O)C(C)(C)c1cc(C(F)(F)F)cc(C(F)(F)F)c1)c1cnc(N(CCO)CCCO)cc1-c1ccccc1Cl | 1.38 | 0.95 | – | –
15 | COCCNc1cc(-c2ccccc2Cl)c(N(C)C(=O)C(C)(C)c2cc(C(F)(F)F)cc(C(F)(F)F)c2)cn1 | 3.05 | 93.3 | – | –
16 | CN(C(=O)C(C)(C)c1cc(C(F)(F)F)cc(C(F)(F)F)c1)c1cnc(N2CCCC[C@@H]2CO)cc1-c1ccccc1Cl | 2.27 | 29.7 | – | –
17 | CN(C(=O)C(C)(C)c1cc(C(F)(F)F)cc(C(F)(F)F)c1)c1cnc(N2CC[C@H](O)[C@H]2CO)cc1-c1ccccc1Cl | 1.58 | 0.91 | – | –
18 | CN(CCO)c1cc(-c2ccccc2Cl)c(N(C)C(=O)C(C)(C)c2cc(C(F)(F)F)cc(C(F)(F)F)c2)cn1 | 0.78 | 2.91 | – | –
